Values of other authors as cited in patent US20130323323A1, “Therapeutic Method and Associated Compound for Augmenting the Liver's Metabolization of Oxygen-Modified Toxins” (priority 2012, published 2013).
Like-named read-outs stand apart in the source and are kept apart here.

Experiments:
[1] = limited supply of oxygen to the liver
[2] = pure oxygen via inhalation; rats, cats, and dogs
[3] = not given; remark: listed apart in the source

CCO [alcohol, Ethanol]
rate at which alcohol is metabolized (plateau) [1]: around 0.02 g alcohol/100 ml blood per hour

O=O [oxygen]
increase in the elimination rate of ethanol [2]: No measurable increase
solubility of oxygen in water (5 degrees Celsius and 1 standard atmosphere): 9 ppm
solubility of oxygen in water (25 degrees Celsius and 1 standard atmosphere): 6 ppm

Cn1c(=O)c2c(ncn2C)n(C)c1=O [Caffeine]
time to peak plasma concentration ([3]; after ingestion): 30 to 45 min
bioavailable ([3]; in vivo): ~100%
